Calls of active or inactive are those of the source. The rule behind the calls is not given here.
Tests used:
[1] = target: T1, Serine/threonine-protein kinase DCLK3 (Homo sapiens) (UniProt Q9C098); settings: Compound concentration 1000.0 nM
T1 sequence (whole entry): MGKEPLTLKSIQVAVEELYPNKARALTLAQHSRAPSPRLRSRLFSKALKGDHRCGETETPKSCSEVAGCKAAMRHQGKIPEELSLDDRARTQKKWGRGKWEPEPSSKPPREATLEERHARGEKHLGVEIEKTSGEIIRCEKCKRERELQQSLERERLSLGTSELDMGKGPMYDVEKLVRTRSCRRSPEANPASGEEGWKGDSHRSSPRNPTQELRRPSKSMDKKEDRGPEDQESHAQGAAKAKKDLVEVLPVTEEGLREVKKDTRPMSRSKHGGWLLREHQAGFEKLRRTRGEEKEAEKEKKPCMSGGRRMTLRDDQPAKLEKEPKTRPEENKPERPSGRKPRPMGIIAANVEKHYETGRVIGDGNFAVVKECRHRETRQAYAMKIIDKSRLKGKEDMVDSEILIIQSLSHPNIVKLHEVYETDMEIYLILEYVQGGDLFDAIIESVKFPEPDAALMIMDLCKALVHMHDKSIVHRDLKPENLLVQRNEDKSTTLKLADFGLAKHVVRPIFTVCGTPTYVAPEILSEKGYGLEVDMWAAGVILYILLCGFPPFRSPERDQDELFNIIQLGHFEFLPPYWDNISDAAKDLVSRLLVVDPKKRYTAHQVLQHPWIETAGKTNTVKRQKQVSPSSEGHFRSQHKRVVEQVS

[2] = target: Tyrosine-protein kinase BTK (Homo sapiens) (UniProt Q06187); settings: Compound concentration 1000.0 nM
[3] = target: Hepatocyte growth factor receptor (Homo sapiens) (UniProt P08581); settings: Compound concentration 1000.0 nM
[4] = target: Cyclin-dependent kinase-like 3 (Homo sapiens) (UniProt Q8IVW4); settings: Compound concentration 1000.0 nM
[5] = tested on: Phosphatidylinositol 4,5-bisphosphate 3-kinase catalytic subunit alpha isoform (Homo sapiens), P42336 [H1047Y]; settings: Compound concentration 1000.0 nM
[6] = target: Alpha-2A adrenergic receptor (Homo sapiens) (UniProt P08913); settings: Compound concentration 10.0 uM
[7] = target: D(3) dopamine receptor (Homo sapiens) (UniProt P35462); settings: Compound concentration 10.0 uM
[8] = target: Serine/threonine-protein kinase LATS2 (Homo sapiens) (UniProt Q9NRM7); settings: Compound concentration 1000.0 nM
[9] = tested on: Receptor-type tyrosine-protein kinase FLT3 (Homo sapiens), P36888 [D835Y]; settings: Compound concentration 1000.0 nM
[10] = target: Focal adhesion kinase 1 (Homo sapiens) (UniProt Q05397); settings: Compound concentration 1000.0 nM
[11] = tested on: Tyrosine-protein kinase ABL1 (Homo sapiens), P00519 [F317I]; settings: Compound concentration 1000.0 nM
[12] = target: Receptor-type tyrosine-protein kinase FLT3 (Homo sapiens) (UniProt P36888); settings: Compound concentration 1000.0 nM
[13] = target: T2, Serine/threonine-protein kinase NLK (Homo sapiens) (UniProt Q9UBE8); settings: Compound concentration 1000.0 nM
T2 sequence (whole entry): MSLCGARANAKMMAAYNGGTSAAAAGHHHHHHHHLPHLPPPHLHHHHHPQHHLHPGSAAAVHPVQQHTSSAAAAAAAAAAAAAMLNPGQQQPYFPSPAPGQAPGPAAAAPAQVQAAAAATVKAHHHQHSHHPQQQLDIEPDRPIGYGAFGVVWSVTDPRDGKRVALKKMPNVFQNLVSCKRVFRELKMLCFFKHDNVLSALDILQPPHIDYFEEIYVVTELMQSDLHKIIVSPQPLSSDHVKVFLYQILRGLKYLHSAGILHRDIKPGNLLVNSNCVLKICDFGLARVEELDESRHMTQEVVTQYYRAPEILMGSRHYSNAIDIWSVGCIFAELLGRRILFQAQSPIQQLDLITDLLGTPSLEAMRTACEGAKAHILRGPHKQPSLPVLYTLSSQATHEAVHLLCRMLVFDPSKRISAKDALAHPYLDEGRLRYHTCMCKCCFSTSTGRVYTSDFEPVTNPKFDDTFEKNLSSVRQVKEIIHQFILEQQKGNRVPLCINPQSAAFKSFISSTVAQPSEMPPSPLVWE

[14] = target: Mitogen-activated protein kinase kinase kinase 10 (Homo sapiens) (UniProt Q02779); settings: Compound concentration 1000.0 nM
[15] = target: Tyrosine-protein kinase CSK (Homo sapiens) (UniProt P41240); settings: Compound concentration 1000.0 nM
[16] = tested on: Mast/stem cell growth factor receptor Kit (Homo sapiens), P10721 [D816H]; settings: Compound concentration 1000.0 nM
[17] = target: Ephrin type-B receptor 6 (Homo sapiens) (UniProt O15197); settings: Compound concentration 1000.0 nM
[18] = tested on: Tyrosine-protein kinase ABL1 (Homo sapiens), P00519 [H396P]; settings: Compound concentration 1000.0 nM
[19] = target: Dual specificity tyrosine-phosphorylation-regulated kinase 1B (Homo sapiens) (UniProt Q9Y463); settings: Compound concentration 1000.0 nM
[20] = tested on: Phosphatidylinositol 4,5-bisphosphate 3-kinase catalytic subunit alpha isoform (Homo sapiens), P42336 [M1043I]; settings: Compound concentration 1000.0 nM
[21] = target: Casein kinase I isoform delta (Homo sapiens) (UniProt P48730); settings: Compound concentration 1000.0 nM
[22] = target: Serine/threonine-protein kinase mTOR (Homo sapiens) (UniProt P42345); settings: Compound concentration 1000.0 nM
[23] = target: Solute carrier family 2, facilitated glucose transporter member 1 (Homo sapiens, UniProt P11166); assay: Cellular mechanistic assay: Inhibition of glucose uptake by Hela-MaTu cells
[24] = tested on: Tyrosine-protein kinase ABL1 (Homo sapiens), P00519 [F317L]; settings: Compound concentration 1000.0 nM

Dual specificity tyrosine-phosphorylation-regulated kinase 1B (Homo sapiens), sequence (Q9Y463 whole entry, looked up, canonical isoform): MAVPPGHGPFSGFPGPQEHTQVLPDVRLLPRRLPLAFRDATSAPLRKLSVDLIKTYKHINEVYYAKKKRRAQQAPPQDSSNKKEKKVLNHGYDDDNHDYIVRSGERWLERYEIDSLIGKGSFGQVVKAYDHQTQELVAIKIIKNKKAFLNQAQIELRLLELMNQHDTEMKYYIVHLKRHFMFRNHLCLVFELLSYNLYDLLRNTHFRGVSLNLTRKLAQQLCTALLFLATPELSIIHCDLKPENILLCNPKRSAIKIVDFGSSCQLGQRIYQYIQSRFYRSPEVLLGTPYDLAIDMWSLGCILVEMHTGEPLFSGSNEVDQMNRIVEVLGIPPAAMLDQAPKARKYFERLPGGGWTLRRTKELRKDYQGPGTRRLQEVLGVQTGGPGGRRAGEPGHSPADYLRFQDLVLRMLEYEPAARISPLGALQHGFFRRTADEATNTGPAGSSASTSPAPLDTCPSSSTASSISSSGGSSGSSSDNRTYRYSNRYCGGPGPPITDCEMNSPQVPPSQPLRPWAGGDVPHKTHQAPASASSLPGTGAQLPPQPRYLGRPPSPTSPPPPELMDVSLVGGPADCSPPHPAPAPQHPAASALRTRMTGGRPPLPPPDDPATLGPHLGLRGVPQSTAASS
Cyclin-dependent kinase-like 3 (Homo sapiens), sequence (Q8IVW4 whole entry, looked up, canonical isoform): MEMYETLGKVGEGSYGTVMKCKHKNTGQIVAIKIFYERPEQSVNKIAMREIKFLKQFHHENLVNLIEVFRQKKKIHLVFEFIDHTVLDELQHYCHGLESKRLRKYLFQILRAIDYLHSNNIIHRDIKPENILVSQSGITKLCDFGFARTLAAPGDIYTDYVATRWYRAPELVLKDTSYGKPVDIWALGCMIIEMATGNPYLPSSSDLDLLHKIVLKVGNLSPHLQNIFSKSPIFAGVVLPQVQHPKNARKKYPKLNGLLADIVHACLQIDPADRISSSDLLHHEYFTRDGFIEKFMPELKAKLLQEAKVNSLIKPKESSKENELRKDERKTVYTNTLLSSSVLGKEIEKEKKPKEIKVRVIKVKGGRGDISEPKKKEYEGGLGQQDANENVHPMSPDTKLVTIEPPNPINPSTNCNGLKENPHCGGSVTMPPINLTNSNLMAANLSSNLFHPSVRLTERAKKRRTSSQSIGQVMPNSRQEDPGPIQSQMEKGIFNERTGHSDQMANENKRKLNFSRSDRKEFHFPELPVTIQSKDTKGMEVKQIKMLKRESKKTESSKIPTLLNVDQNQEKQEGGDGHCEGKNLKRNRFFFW
D(3) dopamine receptor (Homo sapiens), sequence (P35462 whole entry): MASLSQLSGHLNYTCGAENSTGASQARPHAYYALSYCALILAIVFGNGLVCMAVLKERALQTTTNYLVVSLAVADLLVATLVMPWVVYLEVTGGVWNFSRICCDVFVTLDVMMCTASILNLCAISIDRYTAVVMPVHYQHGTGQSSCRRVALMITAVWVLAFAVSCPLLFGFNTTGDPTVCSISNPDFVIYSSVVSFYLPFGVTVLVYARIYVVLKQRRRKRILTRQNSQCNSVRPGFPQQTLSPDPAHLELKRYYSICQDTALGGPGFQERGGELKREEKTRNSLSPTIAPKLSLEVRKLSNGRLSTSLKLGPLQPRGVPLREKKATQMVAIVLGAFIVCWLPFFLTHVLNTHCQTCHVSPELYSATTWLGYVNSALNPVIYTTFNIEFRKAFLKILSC
Tyrosine-protein kinase BTK (Homo sapiens), sequence (Q06187 whole entry): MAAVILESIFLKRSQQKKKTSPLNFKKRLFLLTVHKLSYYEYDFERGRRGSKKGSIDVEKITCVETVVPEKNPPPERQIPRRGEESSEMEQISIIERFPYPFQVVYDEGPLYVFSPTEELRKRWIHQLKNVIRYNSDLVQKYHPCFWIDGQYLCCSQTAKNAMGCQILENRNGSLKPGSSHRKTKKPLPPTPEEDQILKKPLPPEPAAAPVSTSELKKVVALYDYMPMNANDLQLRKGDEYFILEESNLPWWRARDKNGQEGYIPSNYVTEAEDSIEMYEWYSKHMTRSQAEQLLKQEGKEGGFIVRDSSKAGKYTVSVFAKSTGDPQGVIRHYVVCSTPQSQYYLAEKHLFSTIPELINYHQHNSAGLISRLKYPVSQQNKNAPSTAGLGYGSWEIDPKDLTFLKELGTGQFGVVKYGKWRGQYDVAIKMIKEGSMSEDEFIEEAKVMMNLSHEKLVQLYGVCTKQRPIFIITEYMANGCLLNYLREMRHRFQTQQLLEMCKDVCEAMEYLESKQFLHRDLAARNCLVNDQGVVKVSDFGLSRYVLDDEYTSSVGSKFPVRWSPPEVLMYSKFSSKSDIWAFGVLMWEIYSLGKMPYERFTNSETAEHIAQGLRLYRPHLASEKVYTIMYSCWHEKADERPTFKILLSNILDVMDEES
Tyrosine-protein kinase CSK (Homo sapiens), sequence (P41240 2-450 limits assumed): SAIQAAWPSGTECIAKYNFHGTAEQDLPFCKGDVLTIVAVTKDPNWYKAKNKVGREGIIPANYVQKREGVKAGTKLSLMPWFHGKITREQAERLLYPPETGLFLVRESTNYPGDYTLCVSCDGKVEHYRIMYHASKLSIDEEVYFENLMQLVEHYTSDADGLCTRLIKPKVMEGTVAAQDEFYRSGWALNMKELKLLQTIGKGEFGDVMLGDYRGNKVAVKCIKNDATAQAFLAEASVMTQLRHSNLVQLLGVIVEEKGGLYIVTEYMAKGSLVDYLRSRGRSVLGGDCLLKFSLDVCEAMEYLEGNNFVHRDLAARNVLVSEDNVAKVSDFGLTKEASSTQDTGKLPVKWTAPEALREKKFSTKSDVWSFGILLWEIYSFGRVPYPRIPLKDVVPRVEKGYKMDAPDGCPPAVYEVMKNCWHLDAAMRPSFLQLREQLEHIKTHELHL
Solute carrier family 2, facilitated glucose transporter member 1, sequence (P11166 whole entry): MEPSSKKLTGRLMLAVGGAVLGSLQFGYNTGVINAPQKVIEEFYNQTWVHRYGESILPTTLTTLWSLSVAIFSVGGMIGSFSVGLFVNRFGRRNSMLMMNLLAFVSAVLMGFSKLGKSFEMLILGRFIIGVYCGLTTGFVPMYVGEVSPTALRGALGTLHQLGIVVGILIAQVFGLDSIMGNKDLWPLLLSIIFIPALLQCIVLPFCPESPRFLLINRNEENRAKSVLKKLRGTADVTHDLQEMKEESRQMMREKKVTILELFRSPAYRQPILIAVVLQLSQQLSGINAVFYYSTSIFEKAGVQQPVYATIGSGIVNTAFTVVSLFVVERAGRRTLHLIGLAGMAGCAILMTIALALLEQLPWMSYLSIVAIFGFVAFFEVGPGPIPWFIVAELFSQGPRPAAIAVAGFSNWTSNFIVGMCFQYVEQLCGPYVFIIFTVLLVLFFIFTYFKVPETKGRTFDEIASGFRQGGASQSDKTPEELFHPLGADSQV
Ephrin type-B receptor 6 (Homo sapiens), sequence (O15197 whole entry): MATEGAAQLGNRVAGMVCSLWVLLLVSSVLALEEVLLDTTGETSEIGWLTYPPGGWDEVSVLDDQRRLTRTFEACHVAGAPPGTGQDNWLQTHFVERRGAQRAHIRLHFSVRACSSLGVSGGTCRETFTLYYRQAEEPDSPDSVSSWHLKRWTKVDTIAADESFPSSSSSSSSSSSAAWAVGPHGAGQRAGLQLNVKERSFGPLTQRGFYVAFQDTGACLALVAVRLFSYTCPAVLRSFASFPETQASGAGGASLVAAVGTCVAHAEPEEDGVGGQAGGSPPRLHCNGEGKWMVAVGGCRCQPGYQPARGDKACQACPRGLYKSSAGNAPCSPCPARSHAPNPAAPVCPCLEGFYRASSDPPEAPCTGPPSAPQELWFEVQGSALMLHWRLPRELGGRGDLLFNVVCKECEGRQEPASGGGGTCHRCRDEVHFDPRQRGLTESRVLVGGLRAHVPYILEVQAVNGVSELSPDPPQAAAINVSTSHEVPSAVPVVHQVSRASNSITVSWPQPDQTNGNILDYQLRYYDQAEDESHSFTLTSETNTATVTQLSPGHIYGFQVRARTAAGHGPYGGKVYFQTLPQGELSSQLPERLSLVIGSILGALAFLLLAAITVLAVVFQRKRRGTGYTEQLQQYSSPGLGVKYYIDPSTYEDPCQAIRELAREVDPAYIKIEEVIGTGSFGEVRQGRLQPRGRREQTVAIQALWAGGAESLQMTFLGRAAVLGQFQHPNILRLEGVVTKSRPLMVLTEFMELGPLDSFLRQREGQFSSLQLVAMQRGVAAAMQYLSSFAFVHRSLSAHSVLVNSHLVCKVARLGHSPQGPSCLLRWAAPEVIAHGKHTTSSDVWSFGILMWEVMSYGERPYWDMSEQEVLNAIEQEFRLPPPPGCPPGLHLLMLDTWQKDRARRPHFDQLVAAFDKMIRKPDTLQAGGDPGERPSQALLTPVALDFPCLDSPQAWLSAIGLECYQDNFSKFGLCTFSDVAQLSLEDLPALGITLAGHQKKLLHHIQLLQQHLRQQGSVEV
Casein kinase I isoform delta (Homo sapiens), sequence (P48730 whole entry, looked up, canonical isoform): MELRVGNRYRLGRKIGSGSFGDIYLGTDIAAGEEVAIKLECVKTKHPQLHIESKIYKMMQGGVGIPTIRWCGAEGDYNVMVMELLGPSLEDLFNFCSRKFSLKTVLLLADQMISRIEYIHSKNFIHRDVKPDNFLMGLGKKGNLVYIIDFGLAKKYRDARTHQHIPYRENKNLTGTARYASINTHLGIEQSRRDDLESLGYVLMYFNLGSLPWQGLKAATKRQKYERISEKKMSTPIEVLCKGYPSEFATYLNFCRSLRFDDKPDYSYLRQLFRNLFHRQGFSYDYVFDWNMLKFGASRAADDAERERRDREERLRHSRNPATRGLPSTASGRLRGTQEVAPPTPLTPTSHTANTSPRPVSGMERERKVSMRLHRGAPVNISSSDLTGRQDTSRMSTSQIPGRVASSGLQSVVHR

SMILES	residual activity [1] [%]	residual activity [2] [%]	residual activity [3] [%]	residual activity [4] [%]	residual activity [5] [%]	inhibition [6] [%]	inhibition [7] [%]	residual activity [8] [%]	residual activity [9] [%]	residual activity [10] [%]	residual activity [11] [%]	residual activity [12] [%]	residual activity [13] [%]	residual activity [14] [%]	residual activity [15] [%]	residual activity [16] [%]	residual activity [17] [%]	residual activity [18] [%]	residual activity [19] [%]	residual activity [20] [%]	further results
Cc1nc(C2CCN(C(=O)c3ccc(OC(F)(F)F)cc3N)CC2)c2ncc(N3CCN(C)CC3)cc2n1 [BAY-693]	98	87	94	92	69	-6.02	-8.88	100	97	91	76	100	100	100	100	100	100	89	61	96	residual activity [21]: 83%; residual activity [22]: 78%; IC50 [23]: 6.4 µM (not active); residual activity [24]: 97%
CN1CCN(c2cnc3c(C4CCN(C(=O)c5ccc(OC(F)(F)F)cc5N)CC4)ncnc3c2)CC1 [BAY-885]	91	100	69	92	92	-3.41	7.59	100	100	100	99	97	100	100	100	100	18	100	54	100	residual activity [21]: 100%; residual activity [22]: 78%; IC50 [23]: 0.035 µM (active); residual activity [24]: 100%
